The values that follow come from the supplement of paper PMC11061612.

What all share (experiment): Bliss excess, mean over the matrix (fraction); higher = more synergy
Experiment [1] relates to CL-11 (Colorectal Carcinoma). The procedure, abridged:
(§1)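 Cell lines in DMEM/F12 or RPMI with 10% FBS were plated in 1536-well plates, held 24 hours at 37°C, 5% CO2, then given two-drug dose matrices for 72 hours (DMSO typically 0.2%). Viability was read by CellTiter-Glo 2.0 luminescence and scaled as inhibition from 0 (vehicle wells) to 1 (blank wells). Combination Emax is the second-highest inhibition in the matrix; Bliss excess is observed combination effect minus expected EA + EB − EA·EB, EA and EB being single-agent effects.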

Experiment [2] concerns CPC-N (Small Cell Lung Carcinoma). The procedure, abridged: as §1
Experiment [3] has as its system ES6 (Ewing's Sarcoma). The essentials:
as §1

In experiment [4] the test system is LS-1034 (Colorectal Carcinoma). The essentials: as §1
The subject of experiment [5] is MOLP-8 (Plasma Cell Myeloma). The procedure, abridged:
as §1

The test system of experiment [6] is NCI-H3118 (Head and Neck Carcinoma). The essentials: as §1
For experiment [7], the system named is NCI-H596 (Other Solid Carcinomas). The essentials: as §1
Experiment [8] has as its system OAW-28 (Ovarian Carcinoma). The procedure, abridged: as §1
Experiment [9] relates to OVCAR-3 (Ovarian Carcinoma). The essentials: as §1
Experiment [10] concerns P32-ISH (Burkitt's Lymphoma). The procedure, abridged: as §1
The subject of experiment [11] is PA-TU-8988T (Pancreatic Carcinoma). The procedure, abridged:
as §1

Experiment [12] concerns PL4 (Pancreatic Carcinoma). The procedure, abridged:
as §1

Experiment [13] concerns RCC-JW (Kidney Carcinoma). The procedure, abridged:
as §1

The test system of experiment [14] is SK-CO-1 (Colorectal Carcinoma). The essentials: as §1
The subject of experiment [15] is SKG-IIIa (Cervical Carcinoma). The procedure, abridged: as §1
Experiment [16] has as its system SNU-407 (Colorectal Carcinoma). The essentials: as §1
Experiment [17] has as its system SUP-M2 (T-Cell Non-Hodgkin's Lymphoma). The procedure, abridged:
as §1

The subject of experiment [18] is T47D (Breast Carcinoma). The procedure, abridged: as §1
Experiment [19] concerns UACC-257 (Melanoma). The procedure, abridged: as §1
Experiment [20] deals with WM35 (Melanoma). The essentials:
as §1

Each structure is given as a SMILES string.

Take `COc1cccc(OCCCN)c1-c1cc(Nc2cnc(C#N)cn2)n[nH]1` [Prexasertib] + Cc1cc2ncnn2cc1Nc1ncc2c(n1)n(C1CCOCC1)c(=O)n2C [AZD7648] (first compound max 1 µM, 7x7, partner max 10 µM): the Bliss excess in experiment [1] was -0.0065; in experiment [2], -0.0459; in experiment [3] it was 0.0027; in [4], -0.0229; in experiment [5] it was -0.013; in experiment [6], -0.0501. For the same molecule, the Bliss excess is -0.026 in [7]; -0.025 in experiment [8]; -0.0213 in [9]; -0.0068 in experiment [10]; 0.0389 in experiment [11]; 0.0048 in experiment [12]. Moreover, the Bliss excess in [13] is 0.0374; in experiment [14] it was -0.009; in experiment [15] it was 0.0223; in experiment [16], 0.0252; in [17], 0.0696; in [18], -0.0055. For the same molecule, the Bliss excess in experiment [19] was -0.0111; in [20], 0.0429.
Consider `COc1cccc(OCCCN)c1-c1cc(Nc2cnc(C#N)cn2)n[nH]1` [Prexasertib] + O=C(c1cc(Cc2n[nH]c(=O)c3ccccc23)ccc1F)N1CCN(C(=O)C2CC2)CC1 [Olaparib] (first compound max 1 µM, 7x7, partner max 10 µM), for which the Bliss excess is -0.0583 in experiment [1]; -0.0458 in experiment [2]; 0.0253 in experiment [3]; -0.027 in experiment [4]; -0.0802 in experiment [5]; -0.0501 in experiment [6]. The Bliss excess in experiment [7] was 0.0098; in experiment [8] it was -0.0348; in experiment [9], 0.0265; in [10], -0.0205; in experiment [11], -0.0057; in experiment [12], 0.0356. Further, the Bliss excess in [13] was -0.0896; in [14], -0.0442; in experiment [15], -0.0274; in [16], -0.0041; in experiment [17] it was 0.0298; in experiment [18] it was -0.0093. In addition, the Bliss excess in [19] is -0.0242; in [20], -0.0377.
With `COc1cc2c(cc1OCCCCCOc1cc3c(cc1OC)C(=O)N1C=C(C)C[C@H]1C=N3)N=C[C@@H]1CC(C)=CN1C2=O` [SG3199] + O=C(c1cc(Cc2n[nH]c(=O)c3ccccc23)ccc1F)N1CCN(C(=O)C2CC2)CC1 [Olaparib] (first compound max 0.001 µM, 7x7, partner max 10 µM), the Bliss excess in experiment [1] is -0.016; in experiment [2], -0.0062; in [3] it was -0.0231; in experiment [4] it was -0.0462; in experiment [5], 0.002; in experiment [6] it was -0.0471. Besides, the Bliss excess in [7] was -0.0681; in experiment [8], -0.0263; in experiment [9], -0.0205; in experiment [10] it was -0.0164; in experiment [11], 0.0053; in experiment [12] it was 0.0304. The Bliss excess in experiment [13] was -0.0231; in experiment [14] it was -0.0444; in experiment [15], -0.0391; in experiment [16] it was -0.0378; in [17], 0.0274; in [18], -0.0449. Moreover, the Bliss excess in [19] is -0.0419; in experiment [20], -0.0129.
For `CCc1c2c(nc3ccc(O)cc13)-c1cc3c(c(=O)n1C2)COC(=O)[C@]3(O)CC` [SN-38] + CN(C)CCCOc1ccc(-c2ccc3ncc4c(c3c2)n(C2CCOCC2)c(=O)n4C)cn1 [AZD0156] (first compound max 0.3 µM, 7x7, partner max 1 µM), the Bliss excess in [1] is 0.117; in experiment [2] it was 0.199; in experiment [3] it was 0.0441; in experiment [4], 0.139; in experiment [5] it was -0.142; in experiment [6], 0.0864. The Bliss excess in [7] is 0.027; in experiment [8], -0.0053; in [9] it was -0.037; in experiment [10] it was 0.0657; in [11], 0.0755; in experiment [12] it was 0.0253. Also, the Bliss excess in [13] is 0.05; in [14], -0.0032; in [15] it was 0.0352; in [16] it was -0.0188; in experiment [17], 0.061; in experiment [18] it was -0.0023. Besides, the Bliss excess in experiment [19] stood at 0.0023; in experiment [20] it was 0.0082.
Take `C[C@@H](c1ccc2nccn2c1)n1nnc2ncc(-c3cnn(C)c3)nc21` [Savolitinib] + CC1(C)CCC(CN2CCN(c3ccc(C(=O)NS(=O)(=O)c4ccc(NCC5CCOCC5)c([N+](=O)[O-])c4)c(Oc4cnc5[nH]ccc5c4)c3)CC2)=C(c2ccc(Cl)cc2)C1 [Venetoclax] (first compound max 1 µM, 7x7, partner max 1 µM): the Bliss excess in experiment [1] is -0.0576; in [2], -0.0454; in experiment [3], -0.0344; in [4], -0.0465; in [5], -0.0194; in experiment [6], -0.0398. Further, the Bliss excess is -0.0369 in experiment [7]; -0.0331 in experiment [8]; -0.0399 in [9]; -0.0188 in experiment [10]; -0.0763 in experiment [11]; -0.105 in experiment [12]. Besides, the Bliss excess was -0.0343 in [13]; -0.0491 in [14]; -0.0546 in experiment [15]; -0.0299 in [16]; -0.0238 in experiment [17]; -0.0753 in experiment [18]. Also, the Bliss excess is -0.0766 in experiment [19] and -0.065 in experiment [20].
With `C[C@@H](c1ccc2nccn2c1)n1nnc2ncc(-c3cnn(C)c3)nc21` [Savolitinib] + Cc1c2c(nn1C)CSCc1cc(n(C)n1)CSc1cc(c3ccccc3c1)OCCCc1c(C(=O)O)n(C)c3c-2c(Cl)ccc13 [AZD5991] (first compound max 1 µM, 7x7, partner max 1 µM), the Bliss excess in experiment [1] is -0.0402; in experiment [2] it was -0.0179; in experiment [3], -0.0384; in [4] it was -0.022; in experiment [5], -0.0219; in experiment [6], -0.0268. Further, the Bliss excess is -0.0852 in experiment [7]; -0.0129 in experiment [8]; -0.0341 in [9]; -0.0162 in [10]; -0.0205 in [11]; -0.0492 in [12]. The Bliss excess in experiment [13] was -0.0354; in [14], -0.037; in experiment [15], -0.0554; in [16], -0.0396; in experiment [17] it was -0.0292; in experiment [18], -0.0426. Besides, the Bliss excess was -0.0194 in [19] and -0.0503 in [20].
`Cn1cnc2c(F)c(Nc3ccc(Br)cc3Cl)c(C(=O)NOCCO)cc21` [Selumetinib] + C=CCn1c(=O)c2cnc(Nc3ccc(N4CCN(C)CC4)cc3)nc2n1-c1cccc(C(C)(C)O)n1 [AZD1775] (first compound max 10 µM, partner max 1 µM): the Bliss excess in experiment [1] is 0.0024; in experiment [2] it was -0.0858; in experiment [3], -0.0564; in experiment [4], -0.038; in experiment [5], 0.0535; in experiment [6], 0.0207. Further, the Bliss excess was -0.0821 in experiment [7]; -0.0604 in experiment [8]; -0.0737 in [9]; -0.0186 in [10]; -0.0202 in experiment [11]; -0.0685 in experiment [12]. Moreover, the Bliss excess in [13] was -0.0542; in [14], -0.0579; in experiment [15], -0.0733; in experiment [16] it was 0.0099; in [17], 0.0582; in [18], -0.0179. The Bliss excess in [19] came out at 0.0014; in experiment [20] it was 0.0038.
